Measurements published in BindingDB's records for patent US9796706 (Imago Pharmaceuticals, 2017).

Tests used:
Test in all cases: HTRF Assay
[1] = biological target: Mitogen-activated protein kinase 10 (Homo sapiens, UniProt P53779)
Experimental: (§1) The aJNK solution (20 μl/well) was added to the plate and the plate was shaken. The enzyme was incubated with the compound at RT for 10 min.(5) ATP/substrate solution preparation: ATP and substrate stocks were thawed on ice. […] The ATP/substrate (20 μl/well) was added to the plate and the plate was shaken. The plate was incubated at RT for 15 min. Note: In an exemplary assay, the final ATP concentration was about 1 mM.(6) EDTA preparation: 30 mM EDTA was prepared using 0.5M EDTA stock and assay buffer #1. The EDTA (10 μl/well) was added to the plate to quench the enzyme reaction and the plate was shaken well.(7) Detection reagent preparation: Eu-63 and SA-XL stocks were thawed on ice. […] The Eu-63/SA-XL solution (20 μl/well) was added to the plate and the plate was shaken. The plate was incubated at RT for 1 hr before reading the plate on LJL using ratiometric method named HTRF.

[2] = biological target: Mitogen-activated protein kinase 8 (Homo sapiens, UniProt P45983)
Experimental: as §1

[3] = biological target: Mitogen-activated protein kinase 9 (Homo sapiens, UniProt P45984)
Experimental: as §1

Measured: IC50

Sequence of Mitogen-activated protein kinase 10 (P53779 whole entry): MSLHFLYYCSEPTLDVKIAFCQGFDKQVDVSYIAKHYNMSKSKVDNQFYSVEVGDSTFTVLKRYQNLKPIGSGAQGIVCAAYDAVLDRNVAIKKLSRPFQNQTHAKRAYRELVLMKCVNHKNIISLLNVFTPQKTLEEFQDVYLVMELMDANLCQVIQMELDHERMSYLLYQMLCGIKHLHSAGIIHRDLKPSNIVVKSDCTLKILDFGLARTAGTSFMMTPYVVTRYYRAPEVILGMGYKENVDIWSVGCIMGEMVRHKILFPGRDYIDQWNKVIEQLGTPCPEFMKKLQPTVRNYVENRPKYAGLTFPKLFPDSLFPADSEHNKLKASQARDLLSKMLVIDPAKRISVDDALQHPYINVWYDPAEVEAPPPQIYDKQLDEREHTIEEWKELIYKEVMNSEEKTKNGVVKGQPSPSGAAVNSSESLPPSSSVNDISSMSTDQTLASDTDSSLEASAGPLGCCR
Sequence of Mitogen-activated protein kinase 8 (P45983 whole entry): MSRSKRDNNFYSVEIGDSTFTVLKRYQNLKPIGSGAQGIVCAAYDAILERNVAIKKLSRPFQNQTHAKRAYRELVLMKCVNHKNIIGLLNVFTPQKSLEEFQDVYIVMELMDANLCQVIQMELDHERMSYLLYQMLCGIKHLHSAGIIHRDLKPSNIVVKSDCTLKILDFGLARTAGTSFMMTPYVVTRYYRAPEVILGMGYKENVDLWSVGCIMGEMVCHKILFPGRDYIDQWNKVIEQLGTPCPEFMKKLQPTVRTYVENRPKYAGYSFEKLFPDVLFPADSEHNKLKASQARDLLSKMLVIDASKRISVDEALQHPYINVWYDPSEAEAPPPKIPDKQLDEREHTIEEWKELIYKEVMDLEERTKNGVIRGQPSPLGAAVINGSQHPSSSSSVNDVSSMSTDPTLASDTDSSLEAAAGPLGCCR
Sequence of Mitogen-activated protein kinase 9 (P45984 whole entry): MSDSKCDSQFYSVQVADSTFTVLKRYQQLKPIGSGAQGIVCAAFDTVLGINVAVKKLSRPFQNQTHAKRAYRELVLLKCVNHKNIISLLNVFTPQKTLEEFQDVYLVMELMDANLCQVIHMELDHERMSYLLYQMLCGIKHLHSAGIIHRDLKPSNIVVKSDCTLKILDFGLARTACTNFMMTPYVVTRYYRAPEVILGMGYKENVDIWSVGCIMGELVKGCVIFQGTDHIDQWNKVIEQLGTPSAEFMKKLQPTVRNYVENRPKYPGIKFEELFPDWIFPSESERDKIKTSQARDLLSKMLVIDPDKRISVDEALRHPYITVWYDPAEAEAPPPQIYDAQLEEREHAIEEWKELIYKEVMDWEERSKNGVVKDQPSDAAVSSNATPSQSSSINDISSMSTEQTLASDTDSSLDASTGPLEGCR

CN(C)CCN(C(=O)Cn1c(=O)ccc2cc(C(F)(F)F)ccc21)c1scc(Cl)c1-c1nc[nH]n1 [US9796706, Compound 158]
in the range around 5.05 µM: all assays above

O=C(Cn1c(=O)ccc2cc(C(F)(F)F)ccc21)N(CCCN1CCCC1)c1scc(Cl)c1-c1nc[nH]n1 [US9796706, Compound 162]
in the range around 5.05 µM: all assays above
